Measured values taken from ChEMBL document CHEMBL1667765, “Syntheses, antiproliferative activity and theoretical characterization of acitretin-type retinoids with changes in the lipophilic part” (2011).
One block for each molecule: values may come before it. The source made the active and inactive calls. The rule behind the calls is not given here.

Legend:
MCF7 [1] = test: Antiproliferative activity against human MCF7 cells expressing estrogen receptor assessed as cell growth inhibition 5 uM after 72 hrs by WST-1 assay relative to control; format: functional
MCF7 [2] = test: Antiproliferative activity against human MCF7 cells expressing estrogen receptor assessed as cell growth inhibition 50 uM after 72 hrs by WST-1 assay relative to control; format: functional
MCF7 [3] = test: Antiproliferative activity against human MCF7 cells expressing estrogen receptor after 72 hrs by WST-1 assay; format: functional, cell-based
MCF7 [4] = test: Induction of apoptosis in human MCF7 cells expressing estrogen receptor assessed as increase of PARP cleavage at 10^-5 M after 4 hrs by Western blotting; format: functional, cell-based
MCF7 [5] = test: Induction of apoptosis in human MCF7 cells expressing estrogen receptor assessed as increase of PARP cleavage at 10^-5 M after 9 hrs by Western blotting; format: functional, cell-based
MCF7 [6] = test: Cell cycle arrest in human MCF7 cells expressing estrogen receptor at 10^-5 M after 9 to 48 hrs using propidium iodide staining by FACS analysis; format: functional, cell-based
MCF7 [7] = test: Antiproliferative activity against human MCF7 cells expressing estrogen receptor after 72 hrs by MTT assay; format: functional, cell-based
[8] = molecular target: RAC-alpha serine/threonine-protein kinase (Homo sapiens) (UniProt P31749); test: Activation of Akt in human MCF7 cells expressing estrogen receptor at 10^-5 M after 4 hrs by Western blotting; format: functional, cell-based
[9] = molecular target: RAC-alpha serine/threonine-protein kinase (Homo sapiens) (UniProt P31749); test: Activation of Akt in human MCF7 cells expressing estrogen receptor at 10^-5 M after 9 hrs by Western blotting; format: functional, cell-based
MCF7 [10] = test: Antiproliferative activity against human MCF7 cells expressing estrogen receptor at 10 uM after 72 hrs by WST-1 assay; format: functional; settings: MCF7, 72 h

Chain of RAC-alpha serine/threonine-protein kinase (Homo sapiens) (P31749 whole entry): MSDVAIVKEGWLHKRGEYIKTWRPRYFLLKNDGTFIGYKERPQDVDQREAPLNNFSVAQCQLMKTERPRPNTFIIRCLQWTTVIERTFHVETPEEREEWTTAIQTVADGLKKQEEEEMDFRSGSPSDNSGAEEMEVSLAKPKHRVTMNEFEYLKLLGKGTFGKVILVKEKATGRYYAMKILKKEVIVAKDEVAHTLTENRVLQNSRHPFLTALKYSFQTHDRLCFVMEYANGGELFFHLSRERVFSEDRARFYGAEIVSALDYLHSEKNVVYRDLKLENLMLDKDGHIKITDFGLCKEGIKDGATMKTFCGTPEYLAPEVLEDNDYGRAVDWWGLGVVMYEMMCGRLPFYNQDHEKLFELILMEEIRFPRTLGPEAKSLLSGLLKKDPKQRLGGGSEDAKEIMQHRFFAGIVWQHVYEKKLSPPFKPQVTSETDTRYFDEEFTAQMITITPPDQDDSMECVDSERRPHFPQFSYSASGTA

SMILES: CC(/C=C/c1cc(F)c(F)cc1F)=C\C=C\C(C)=C\C(=O)O
- inhibition (INH) (MCF7 [1]): 2%
- inhibition (INH) (MCF7 [2]): 10%

SMILES: COc1cc(C)c(/C=C/C(C)=C/C=C/C(C)=C/C(=O)O)c(C)c1C
- inhibition (MCF7 [3]): Dose-dependent effect

SMILES: CC(/C=C/c1ccc2ccc3cccc4ccc1c2c34)=C\C=C\C(C)=C\C(=O)O
- inhibition (INH) (MCF7 [1]): 5.2%
- inhibition (INH) (MCF7 [2]): 4%

SMILES: CC(/C=C/C=C(\C)c1ccc2ccc3cccc4ccc1c2c34)=C\C(=O)O
- inhibition (INH) (MCF7 [2]): 8%

SMILES: COc1ccc(/C=C/C(C)=C/C=C/C(C)=C/C(=O)O)cc1OC
- inhibition (INH) (MCF7 [2]): -30%

SMILES: CC1=C(/C=C/C(C)=C/C=C/C(C)=C/C(=O)O)C(C)(C)CCC1 [TRETINOIN]
- inhibition (INH) (MCF7 [2]): 3.1%

SMILES: CN[C@@H]1C[C@H]2O[C@@](C)([C@@H]1OC)n1c3ccccc3c3c4c(c5c6ccccc6n2c5c31)C(=O)NC4
- Activity (MCF7 [4]): Active
- Activity (MCF7 [5]): Active

SMILES: COc1ccc2cc(/C(C)=C/C=C/C(C)=C/C(=O)O)ccc2c1
- inhibition (INH) (MCF7 [2]): -32%

SMILES: CC(/C=C/c1ccc2ccccc2c1)=C\C=C\C(C)=C\C(=O)O
- inhibition (INH) (MCF7 [2]): -25%

SMILES: CC(/C=C/c1ccc(N(C)C)cc1)=C\C=C\C(C)=C\C(=O)O
- inhibition (INH) (MCF7 [2]): 5%

SMILES: CC(/C=C/C=C(\C)c1ccc2cc3ccccc3cc2c1)=C\C(=O)O
- inhibition (INH) (MCF7 [2]): 15%

- Activity [8]: inactive
- Activity [9]: inactive
SMILES: COc1cc(OC)c(/C=C/C(C)=C/C=C/C(C)=C/C(=O)O)c(OC)c1
- Activity (MCF7 [6]): inactive
- Activity (MCF7 [4]): inactive
- inhibition (MCF7 [7]): Active
- Activity (MCF7 [5]): inactive
- inhibition (MCF7 [3]): Active
- inhibition at 10 µM (MCF7 [10]): 52%
- inhibition (INH) (MCF7 [2]): -53%

SMILES: CC(/C=C/c1ccc(C(F)(F)F)cc1C(F)(F)F)=C\C=C\C(C)=C\C(=O)O
- inhibition (INH) (MCF7 [1]): 13.9%
- inhibition (INH) (MCF7 [2]): 6%
